System: maltase
Experiment: GOD-PAP glucose release assay, Lineweaver-Burk plot
Assay type: biochemical, Bacillus licheniformis
Conditions: free (soluble) enzyme, partially purified; maltose 2.5-50 mM; pH and temperature of the kinetics not stated

Km: 1.71 mM ml^−1
SMILES: OC[C@H]1O[C@H](O[C@H]2[C@H](O)[C@@H](O)C(O)O[C@@H]2CO)[C@H](O)[C@@H](O)[C@@H]1O (stereo partly shown) [maltose]

— publication PMC5669356, “Continuous degradation of maltose by enzyme entrapment technology using calcium alginate beads as a matrix” (Biochemistry and Biophysics Reports, 2015)
